Legend:
[1] = target: T1, Cytochrome P450 1B1 (Homo sapiens, UniProt Q16678); test: Inhibition of recombinant human CYP1B1 expressed in baculovirus infected insect cells using 7-ethoxyresorufin as substrate preincubated for 5 mins followed by NADPH addition and measured after 15 mins by EROD assay
T1 sequence (Q16678 whole entry): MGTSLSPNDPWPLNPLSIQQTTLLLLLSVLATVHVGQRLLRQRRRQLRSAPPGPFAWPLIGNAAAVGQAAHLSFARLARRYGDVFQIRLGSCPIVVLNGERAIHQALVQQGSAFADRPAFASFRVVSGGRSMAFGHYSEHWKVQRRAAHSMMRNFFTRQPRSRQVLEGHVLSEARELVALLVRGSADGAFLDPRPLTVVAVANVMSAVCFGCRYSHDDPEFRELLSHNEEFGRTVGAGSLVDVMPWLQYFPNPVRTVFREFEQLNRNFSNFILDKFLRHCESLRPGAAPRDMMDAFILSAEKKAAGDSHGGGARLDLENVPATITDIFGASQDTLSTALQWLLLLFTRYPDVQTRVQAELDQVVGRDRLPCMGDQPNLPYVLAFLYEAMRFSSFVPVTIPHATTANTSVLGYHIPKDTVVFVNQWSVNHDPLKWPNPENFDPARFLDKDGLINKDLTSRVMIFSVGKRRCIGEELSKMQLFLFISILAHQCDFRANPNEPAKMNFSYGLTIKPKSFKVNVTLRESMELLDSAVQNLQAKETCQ

[2] = target: T2, Cytochrome P450 1A2 (Homo sapiens, UniProt P05177); test: Inhibition of recombinant human CYP1A2 expressed in baculovirus infected insect cells using 7-ethoxyresorufin as substrate preincubated for 5 mins followed by NADPH addition and measured after 35 mins by EROD assay; type: ADME
T2 sequence (P05177 whole entry): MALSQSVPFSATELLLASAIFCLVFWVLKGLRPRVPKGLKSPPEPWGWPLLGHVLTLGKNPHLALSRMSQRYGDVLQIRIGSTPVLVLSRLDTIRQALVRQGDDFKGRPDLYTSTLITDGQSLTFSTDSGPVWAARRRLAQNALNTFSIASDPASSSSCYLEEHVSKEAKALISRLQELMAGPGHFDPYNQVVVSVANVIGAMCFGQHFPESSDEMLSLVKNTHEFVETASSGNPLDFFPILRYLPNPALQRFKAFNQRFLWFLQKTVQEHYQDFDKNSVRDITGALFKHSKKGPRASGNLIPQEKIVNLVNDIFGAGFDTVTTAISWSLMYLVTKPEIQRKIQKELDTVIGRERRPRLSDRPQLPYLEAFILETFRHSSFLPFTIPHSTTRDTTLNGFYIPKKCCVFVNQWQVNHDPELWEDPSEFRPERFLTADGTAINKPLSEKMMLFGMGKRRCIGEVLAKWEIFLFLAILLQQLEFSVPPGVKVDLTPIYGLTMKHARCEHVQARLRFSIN

[3] = organism: Homo sapiens; test: Selectivity ratio IC50 for inhibition of recombinant human CYP1A2 to inhibition of recombinant human CYP1B1
[4] = target: von Hippel-Lindau disease tumor suppressor/Cytochrome P450 1B1 (Homo sapiens, UniProt Q16678+P40337); test: Protac activity at E3 ubiquitin ligase/CYP1B1 (unknown origin) expressed in human DU145 cells assessed as induction of CYP1B1 degradation by immunoblotting analysis; type: cell-based; settings: du-145
Sequence of von Hippel-Lindau disease tumor suppressor/Cytochrome P450 1B1 (P40337 whole entry, one chain of several): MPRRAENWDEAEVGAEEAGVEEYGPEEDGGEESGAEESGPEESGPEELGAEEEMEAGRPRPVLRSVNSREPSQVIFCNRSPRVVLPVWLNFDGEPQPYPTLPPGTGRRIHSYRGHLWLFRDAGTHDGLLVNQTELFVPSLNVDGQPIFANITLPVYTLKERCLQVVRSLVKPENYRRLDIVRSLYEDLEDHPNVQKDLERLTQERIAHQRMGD

[5] = test system: DU-145; test: Cytotoxicity against human DU-145 cells assessed as reduction in cell viability after 48 hrs by MTT assay; type: functional, cell-based; settings: DU-145, 48 h
[6] = test system: DU-145; test: Cytotoxicity against human DU-145 cells over expressing CYP1B1 assessed as reduction in cell viability after 48 hrs by MTT assay; type: functional, cell-based; settings: DU-145, 48 h
[7] = Selectivity ratio of IC50 for cytotoxicity against human DU-145 cells over expressing CYP1B1 to cytotoxicity against human DU-145 cells; type: functional

| Compound | IC50 [1] | IC50 [2] | Ratio IC50 [3] | Activity [4] | IC50 [5] | IC50 [6] | Ratio IC50 [7] |
| --- | --- | --- | --- | --- | --- | --- | --- |
| COc1ccc(OC)c2c1c(OC)cc1c(=O)cc(-c3ccccc3)oc12 | 1.4 nM | 25.8 nM | 18.4 |  |  |  |  |
| [N-]=[N+]=NCCOc1cccc2c1C(=O)N(C1CCC(=O)NC1=O)C2=O (configuration not stated) | > 10000 nM | > 10000 nM |  |  |  |  |  |
| COc1ccc(OC)c2c1c(OC)cc1c(=O)cc(-c3ccc(Cl)cc3)oc12 | 0.6 nM | 37.2 nM | 62 |  |  |  |  |
| COc1ccc(OC)c2c1c(OC)cc1c(=O)cc(-c3ccc(-c4cn(CCOc5cccc6c5C(=O)N(C5CCC(=O)NC5=O)C6=O)nn4)cc3)oc12 (configuration not stated) | 101 nM | 9030 nM | 89.2 | Active |  |  |  |
| COc1ccc(OC)c2c1c(OC)cc1c(=O)cc(-c3ccc(-c4cn(CCCCCCOc5cccc6c5C(=O)N(C5CCC(=O)NC5=O)C6=O)nn4)cc3)oc12 (configuration not stated) | 95.1 nM | 9840 nM | 104 | Dose-dependent effect and Tde |  |  |  |
| C#Cc1ccc(-c2cc(=O)c3cc(OC)c4c(OC)ccc(OC)c4c3o2)cc1 | 2.1 nM | 885 nM | 422 | Not Active |  |  |  |
| COc1ccc(OC)c2c1c(OC)cc1c(=O)cc(-c3ccc(-c4cn(CCCCCCCCOc5cccc6c5C(=O)N(C5CCC(=O)NC5=O)C6=O)nn4)cc3)oc12 (configuration not stated) | 166 nM | 7460 nM | 44.8 | Not Active |  |  |  |
| COc1ccc(OC)c2c1c(OC)cc1c(=O)cc(-c3ccc(-c4cn(CCCCCOc5cccc6c5C(=O)N(C5CCC(=O)NC5=O)C6=O)nn4)cc3)oc12 (configuration not stated) | 153 nM | 8570 nM | 56.1 | Active |  |  |  |
| CC(=O)O[C@@]12CO[C@@H]1C[C@H](O)[C@@]1(C)C(=O)[C@H](O)C3=C(C)[C@@H](OC(=O)[C@H](O)[C@@H](NC(=O)OC(C)(C)C)c4ccccc4)C[C@@](O)([C@@H](OC(=O)c4ccccc4)[C@H]21)C3(C)C [DOCETAXEL ANHYDROUS] |  |  |  |  | 4.95 nM | 43.2 nM | 9 |
| [N-]=[N+]=NCCCCCCCCOc1cccc2c1C(=O)N(C1CCC(=O)NC1=O)C2=O (configuration not stated) | > 10000 nM | > 10000 nM |  | Not Active |  |  |  |
| [N-]=[N+]=NCCCCCOc1cccc2c1C(=O)N(C1CCC(=O)NC1=O)C2=O (configuration not stated) | > 10000 nM | > 10000 nM |  | Not Active |  |  |  |
| COc1ccc(OC)c2c1c(OC)cc1c(=O)cc(-c3ccc(-c4c[nH]nn4)cc3)oc12 | 0.4 nM | 47.8 nM | 120 |  |  |  |  |
| [N-]=[N+]=NCCCCCCOc1cccc2c1C(=O)N(C1CCC(=O)NC1=O)C2=O (configuration not stated) | > 10000 nM | > 10000 nM |  |  |  |  |  |

Reference: ChEMBL document CHEMBL4680161, “Design and synthesis of α-naphthoflavone chimera derivatives able to eliminate cytochrome P450 (CYP)1B1-mediated drug resistance via targeted CYP1B1 degradation” (Eur J Med Chem, 2020)
